Results reported in ChEMBL document CHEMBL3734732, “Pyrrole- and indole-containing tranylcypromine derivatives as novel lysine-specific demethylase 1 inhibitors active on cancer cells” (Medchemcomm, 2015).

Key:
[1] = molecular target: Lysine-specific histone demethylase 1A (Homo sapiens) (UniProt O60341); assay: Inhibition of LSD1 in human NB4 cells assessed as induction of GFI-1b mRNA expression at IC50 after 24 hrs by quantitative RT-PCR analysis relative to vehicle-treated control; type: cell-based; conditions: NB-4
LSD1/CoREST complex = LSD1/CoREST complex (Homo sapiens, UniProt O60341); assay: Inhibition of human recombinant LSD1/CoREST protein expressed in Escherichia coli using monomethylated H3-K4 peptide (21 amino acids) as substrate preincubated for 15 mins followed by substrate addition measured for 12 mins by HRP-coupled Ultrared detection system-based fluorescence analysis
[2] = molecular target: LSD1/CoREST complex (Homo sapiens) (UniProt O60341+Q9UKL0); assay: Potency index, ratio of trans-benzyl 1-(4-(2-aminocyclopropyl)phenylamino)-1-oxo-3-phenylpropan-2-ylcarbamate hydrochloride IC50 to compound IC50 for human recombinant LSD1/CoREST protein expressed in Escherichia coli
Sequence of LSD1/CoREST complex (Homo sapiens) (Q9UKL0 whole entry, looked up, other chains not shown): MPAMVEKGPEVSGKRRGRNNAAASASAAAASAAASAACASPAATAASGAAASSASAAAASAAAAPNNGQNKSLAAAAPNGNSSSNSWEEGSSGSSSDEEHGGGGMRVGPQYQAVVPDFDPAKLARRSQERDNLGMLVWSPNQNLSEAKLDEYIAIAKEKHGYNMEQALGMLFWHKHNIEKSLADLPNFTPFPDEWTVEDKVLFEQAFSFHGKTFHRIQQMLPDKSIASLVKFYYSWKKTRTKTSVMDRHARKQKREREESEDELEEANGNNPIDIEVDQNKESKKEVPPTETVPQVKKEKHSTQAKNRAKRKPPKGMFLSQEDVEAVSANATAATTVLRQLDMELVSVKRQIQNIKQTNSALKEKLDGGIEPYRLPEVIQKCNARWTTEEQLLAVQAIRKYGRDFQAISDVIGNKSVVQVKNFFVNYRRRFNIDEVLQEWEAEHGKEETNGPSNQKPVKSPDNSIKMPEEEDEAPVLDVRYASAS

[3] = molecular target: Lysine-specific histone demethylase 1A (Homo sapiens) (UniProt O60341); assay: Inhibition of LSD1 in human NB4 cells assessed as induction of ITGAM mRNA expression at IC50 after 24 hrs by quantitative RT-PCR analysis relative to vehicle-treated control; type: cell-based; conditions: NB-4
MV4-11 [4] = assay: Cytotoxicity against human MV4-11 cells assessed as growth inhibition after 72 hrs by CellTiter-Fluor Cell Viability assay; type: functional, cell-based; conditions: MV4-11, 72 h
Homo sapiens = species: Homo sapiens; assay: Selectivity ratio of IC50 for human recombinant MAO A to IC50 for human recombinant LSD1/CoREST
[5] = Cytotoxicity against human NB4 cells assessed as growth inhibition after 72 hrs by CellTiter-Fluor Cell Viability assay; type: functional, cell-based; conditions: NB-4, 72 h
[6] = molecular target: T1, Amine oxidase [flavin-containing] A (Homo sapiens, UniProt P21397); assay: Inhibition of human recombinant MAO A expressed in Pichia pastoris using kynuramine as substrate preincubated for 15 mins followed by substrate addition by horseradish peroxidase coupled-spectrofluorimetric assay
T1 sequence (P21397 whole entry): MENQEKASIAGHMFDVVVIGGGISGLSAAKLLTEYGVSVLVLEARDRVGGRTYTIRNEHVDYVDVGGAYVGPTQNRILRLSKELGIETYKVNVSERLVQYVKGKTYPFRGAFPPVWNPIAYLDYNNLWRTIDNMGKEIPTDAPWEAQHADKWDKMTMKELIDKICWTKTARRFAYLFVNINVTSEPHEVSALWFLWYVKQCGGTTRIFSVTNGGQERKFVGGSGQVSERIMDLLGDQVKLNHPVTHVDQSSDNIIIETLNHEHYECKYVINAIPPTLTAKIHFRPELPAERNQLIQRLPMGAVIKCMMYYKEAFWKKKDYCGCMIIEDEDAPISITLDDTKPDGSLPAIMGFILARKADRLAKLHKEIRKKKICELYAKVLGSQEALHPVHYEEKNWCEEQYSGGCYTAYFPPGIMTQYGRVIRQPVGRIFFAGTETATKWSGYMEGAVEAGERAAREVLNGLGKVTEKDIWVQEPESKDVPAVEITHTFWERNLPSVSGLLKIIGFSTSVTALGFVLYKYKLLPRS

[7] = molecular target: T2, Amine oxidase [flavin-containing] B (Homo sapiens, UniProt P27338); assay: Inhibition of human recombinant MAO B expressed in Pichia pastoris using benzylamine as substrate preincubated for 15 mins followed by substrate addition by horseradish peroxidase coupled-spectrofluorimetric assay
T2 sequence (P27338 whole entry): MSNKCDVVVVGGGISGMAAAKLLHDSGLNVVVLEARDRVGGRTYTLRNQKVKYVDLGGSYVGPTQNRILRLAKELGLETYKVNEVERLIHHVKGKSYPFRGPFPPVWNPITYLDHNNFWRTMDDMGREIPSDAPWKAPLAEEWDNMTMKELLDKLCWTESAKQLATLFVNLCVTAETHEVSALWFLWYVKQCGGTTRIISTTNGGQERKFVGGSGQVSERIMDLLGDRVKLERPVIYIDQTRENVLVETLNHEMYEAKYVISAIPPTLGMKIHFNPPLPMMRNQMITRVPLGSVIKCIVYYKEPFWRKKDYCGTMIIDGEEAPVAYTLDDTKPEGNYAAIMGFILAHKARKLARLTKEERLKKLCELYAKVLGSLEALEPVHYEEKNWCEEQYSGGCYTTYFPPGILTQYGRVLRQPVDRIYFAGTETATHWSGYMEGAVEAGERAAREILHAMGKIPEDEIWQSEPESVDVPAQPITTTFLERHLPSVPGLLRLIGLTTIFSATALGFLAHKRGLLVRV

NB-4 = assay: Potency index, ratio of trans-benzyl 1-(4-(2-aminocyclopropyl)phenylamino)-1-oxo-3-phenylpropan-2-ylcarbamate hydrochloride IC50 to compound IC50 for human NB4 cells; type: functional
MV4-11 [8] = assay: Potency index, ratio of trans-benzyl 1-(4-(2-aminocyclopropyl)phenylamino)-1-oxo-3-phenylpropan-2-ylcarbamate hydrochloride IC50 to compound IC50 for human MV4-11 cells; type: functional
[9] = Cytotoxicity against human NB4 cells assessed as growth inhibition at 100 uM after 72 hrs by CellTiter-Fluor Cell Viability assay; type: functional; conditions: NB-4, 72 h

Row | Compound | fold change (FC) [1] | IC50 (LSD1/CoREST complex) [µM] | Ratio IC50 [2] | fold change (FC) [3] | IC50 (MV4-11 [4]) [µM] | Ratio IC50 (Homo sapiens) | IC50 [5] [µM] | IC50 [6] [µM] | IC50 [7] [µM] | Ratio IC50 (NB-4) | Ratio IC50 (MV4-11 [8]) | inhibition at 100 µM [9] [%]
1 | N[C@@H]1C[C@H]1c1ccc(NC(=O)c2cc3ccccc3[nH]2)cc1 | < 6 | 0.065 | 2 | < 4 |  |  |  |  |  |  |  | 
2 | N[C@@H]1C[C@H]1c1ccc(NC(=O)c2ccc[nH]2)cc1 | < 6 | 0.163 |  | < 4 |  |  |  |  |  |  |  | 
3 | N[C@@H]1C[C@H]1c1ccc(NC(=O)c2ccn(C(=O)OCc3ccccc3)c2)cc1 | < 6 | 0.05 | 3 | < 4 | 15.2 | < 8 | 22.3 | 0.11 | 3.9 |  |  | 
4 | Cl.N[C@@H]1C[C@H]1c1ccc(NC(=O)c2cc3ccccc3n2C(=O)OCc2ccccc2)cc1 (relative stereo) | < 6 | 0.04 | 3.7 | < 4 | 5.9 | < 8 | 6.5 | 0.16 | > 60 | 2 | 2 | 
5 | N[C@@H]1C[C@H]1c1ccc(NC(=O)c2cc3ccccc3n2CC(=O)Nc2ccccc2)cc1 (relative stereo) | < 6 | 0.087 | 2 | < 4 |  |  |  |  |  |  |  | 
6 | N[C@@H]1C[C@H]1c1ccc(NC(=O)c2cccn2CC(=O)Nc2ccccc2)cc1 (relative stereo) | < 6 | 0.125 |  | < 4 |  |  |  |  |  |  |  | 
7 | N[C@@H]1C[C@H]1c1ccc(NC(=O)CNC(=O)OCc2ccccc2)cc1 (relative stereo) |  | 0.304 |  |  |  |  |  |  |  |  |  | 
8 | N[C@@H]1C[C@H]1c1ccc(NC(=O)c2cccn2C(=O)OCc2ccccc2)cc1 (relative stereo) | < 6 | 0.032 | 5 | < 4 | 6.8 | < 8 |  | 0.26 | 75.8 |  |  | 56
9 | N[C@@H]1C[C@H]1c1ccc(NC(=O)c2cc3ccccc3n2CC(=O)NCc2ccccc2)cc1 (relative stereo) |  | 0.308 |  |  |  |  |  |  |  |  |  | 
10 | N[C@@H]1C[C@H]1c1ccc(NC(=O)c2cc3ccccc3n2CC(=O)c2ccccc2)cc1 (relative stereo) |  | 0.853 |  |  |  |  |  |  |  |  |  | 
11 | Cl.N[C@@H]1C[C@H]1c1ccc(NC(=O)c2cn(C(=O)OCc3ccccc3)c3ccccc23)cc1 (relative stereo) | < 6 | 0.086 | 1.7 | < 4 | 2.5 | < 8 | 9.3 | 0.46 | > 70 | 2 | 2 | 
12 | N[C@@H]1C[C@H]1c1ccc(NC(=O)c2cccn2CC(=O)NCc2ccccc2)cc1 (relative stereo) | < 6 | 0.155 |  | < 4 |  |  |  |  |  |  |  | 
13 | N[C@@H]1C[C@H]1c1ccc(NC(=O)C2CCCN2C(=O)OCc2ccccc2)cc1 (relative stereo) |  | 0.061 | 2 |  |  |  |  |  |  |  |  | 
14 | N[C@@H]1C[C@H]1c1ccc(NC(=O)C(Cc2ccccc2)NC(=O)OCc2ccccc2)cc1 (relative stereo) |  |  |  |  | 10.2 |  | 17.4 |  |  |  |  | 
15 | N[C@@H]1C[C@H]1c1ccc(NC(=O)c2cccn2CC(=O)c2ccccc2)cc1 (relative stereo) |  | 1.32 |  |  |  |  |  |  |  |  |  | 
